The record followed here is patent US20080014186A1, “Hla-A24 or Hla-A2 Binding Peptides of Parathyroid Hormone-Related Protein” (GREEN PEPTIDE CO., LTD., priority 2004, published 2008).

The test system of one data set is PC93-A2 cells. Briefly: Cytotoxicity of peptide-stimulated PBMCs (HLA-A2). In kind it is cell-based, human. The settings on record: PC93-A2 vs PC93 and PHA-stimulated T cell blasts; FIG. 4B, 5. Here is the method: In a similar way to Example 2, it was examined whether or not PTHrP 42-51 and PTHrP 59-67 peptides could induce cancer-reactive CTLs in PBMCs derived from HLA-A2^+ healthy donors and prostate cancer patients. An HLA-A2-expressing PC93 prostate cancer cell line was prepared by constitutively expressing an HLA-A*0201 molecule on a PC93 cell which was a HLA-A2-prostate cancer cell line (established by Dr. K. Ohnishi, Department of Urology, Kyoto University) (PC93-A2 cell). The expression of the HLA-A*0201 molecule on the cell line was previously reported. In addition, the PC93 cells produced PTHrP at a level of 2.2 pmol/l (1×10^6 cell/ml for 24 hr).
Cytotoxicities of these peptide-stimulated PBMCs against PC93 cells, PC93-A2 cells, and PHA-stimulated T cell blasts are shown in FIG. 4B.

A further data set concerns LNCaP-A24 cells. The experiment in a line: 6-hr 51Cr-release cytotoxicity assay of peptide-stimulated PBMCs (HLA-A24). The settings on record: LNCaP-A24 vs LNCaP and HLA-A24^+ PHA-blastoid T cells; FIG. 2A. It counts as cell-based, human. Here is the method: In order to investigate the HLA-A24-restricted and prostate cancer-reactive cytotoxicity of peptide-stimulated PBMCs, an HLA-A24-expressing LNCaP cell line, which was designated as LNCaP-A24, was prepared. The LNCaP is an HLA-A24 negative prostate cancer cell line. To establish LNCaP cells stably expressing HLA-A24 molecules (designated as LNCaP-A24), a pcDNA3.1/Hygro vector (Invitrogen, Calif.), which was inserted with the HLA-A*2402 gene, was electroporated into the LNCaP cell line (ATCC number: CRL-1740), and selection was carried out with hygromycin B (Invitrogen) at a dose of 170 μg/ml. All cell lines were maintained in RPMI-1640 medium (Gibco BRL, Grand Island, N.Y., USA) supplemented with 10% FCS. LNCaP has previously been reported to produce PTHrP (17). A parental LNCaP cell line was negative for the cell surface expression of HLA-A24 molecules, whereas the LNCaP-A24 cell line expressed HLA-A24 molecules on their cell surface. Flow cytometric analysis was performed on LNCaP and LNCaP-A24 cells. These cells were stained with anti-HLA-A24 mAb, followed by FITC-conjugated anti-mouse IgG mAb. The dotted lines represent staining without the first rnAb. […]

Ends that are not written are not given here.

For the sequence FLHHLIAEI [PTHrP 59-67], the “Induction of prostate cancer-reactive CTLs / cytotoxicity of peptide-stimulated PBMCs” value in the data set on PC93-A2 cells is recorded as “have the potential to induce prostate cancer-reactive CTLs”.
Consider QLLHDKGKSI, for which the “Induction of prostate cancer-reactive CTLs / cytotoxicity of peptide-stimulated PBMCs” value in the data set with PC93-A2 cells is on record as “have the potential to induce prostate cancer-reactive CTLs”.
Take RAVSEHQLL [PTHrP 36-44]: the “Induction of prostate cancer-reactive CTLs / cytotoxicity of peptide-stimulated PBMCs” value in the data set with LNCaP-A24 cells is on record as “have the potential to induce prostate cancer-reactive CTLs”.
Still for that read-out and setting: next, RYLTQETNKV [PTHrP 102-111]: “have the potential to induce prostate cancer-reactive CTLs”.
